Like-named read-outs stand apart in the source and are kept apart here. Starred links: 1 amine or outer side, 2 acyl side, 3 side chain; linkers in the order of their positions; H or OH if unused. Positions of bridges follow the written chain, without caps; N, C: chain ends. Non-standard residues stand in square brackets, D forms with d. Residues, ends and D or L forms follow the SMILES beside them. Adda = CO[C@@H](Cc1ccccc1)[C@@H](C)/C=C(C)/C=C/[C@H](N[*:1])[C@H](C)C(=O)[*:2]; dAsp(3S-Me) = C[C@H](C(=O)[*:3])[C@@H](N[*:1])C(=O)[*:2]; d(γGlu) = O=C(O)[C@@H](CCC(=O)[*:2])N[*:1]; NMeDha = C=C(NC)C(=O)O
How the values were obtained:
Akt = test: Cell-free in vitro assay (3T3-L1 adipocyte PM/CYT/LDM fractions), Akt phosphorylation by phospho-Akt immunoblot; assay type: biochemical; details: for ability of phosphatidylinositol lipids to stimulate Thr308 and Ser473 phosphorylation of Akt: data not shown
PDK2 = PDK2 activity in in vitro reactions at different chloride concentrations; assay type: biochemical
[1] = 10 μM PIP3 added to CYT alone, non-insulin treated cells, 15 min at 37° C.
[2] = 10 μM PIP3 added to CYT and LDM, 15 min at 37° C.

O[C@@H](CS)[C@@H](O)CS [DTT]
signal for both Akt phosphorylation sites in reactions containing PM(+ins) (Akt; 15 min at 37° C.): appeared to inhibit the phospho-Akt signal in most cases

C=C1C(=O)N[C@H](C)C(=O)N[C@@H](CC(C)C)C(=O)N[C@@H](C(=O)O)[C@H](C)C(=O)N[C@@H](CCCNC(=N)N)C(=O)N[C@@H](/C=C/C(C)=C/[C@H](C)[C@H](Cc2ccccc2)OC)[C@H](C)C(=O)N[C@@H](C(=O)O)CCC(=O)N1C [Microcystin, microcystin-LR] (R[Adda][d(γGlu)][NMeDha][dA]L[dAsp(3S-Me)]-OH; lactam N-7)
control (basal) phospho-Akt signal in reactions containing PM(−ins) (Akt): elevated the basal signal only for the Ser473 site
signal for both Akt phosphorylation sites in reactions containing PM(+ins) (Akt): increased the insulin-stimulated signal

Cl [chloride]
PIP3-induced Ser473 phosphorylation (Akt): completely inhibited
insulin-stimulated phosphorylation of both Thr308 and Ser473 (Akt; 145 mM chloride (140 mM KCl/5 mM NaCl or 145 mM NaCl), PM and CYT): almost completely suppressed
PIP3-stimulated Thr308 phosphorylation (Akt; high chloride (145 mM), 10 μM PIP3, PM(−ins) and CYT): severely inhibited
chloride concentration that completely inhibits PDK2 activity (PDK2): > 100 mM

phosphatidylinositol(3,4)P2 [PI (3,4)P2]
ability of phosphatidylinositol lipids to stimulate Thr308 and Ser473 phosphorylation of Akt (Akt): could stimulate

phosphatidylinositol(3,4,5)P3 [PIP3]
Ser473 phosphorylation of Akt (Akt; [1]): occurred only marginally
Thr308 phosphorylation of Akt (Akt; [1]): efficient phosphorylation
Ser473 signal (Akt; [2]): robust
Thr308 signal relative to reaction containing CYT alone (Akt; [2]): not further enhanced
ability of phosphatidylinositol lipids to stimulate Thr308 and Ser473 phosphorylation of Akt (Akt): could stimulate
